Where “and” joins values, the source holds several entries; their conditions need not be identical. Identical values can stand only once. Like-named read-outs stand apart in the source and are kept apart here.
Assays:
[1] = biological target: T1, SARS-CoV-2 Spike RBD/ACE2 (Homo sapiens, UniProt Q9BYF1); test: biochemical; assay type: binding, SARS-CoV-2 (Wuhan / USA-WA/2020 wild-type) spike; human ACE2; conditions: for inhibition at 32 µM: read-out: Spike RBD/ACE2 Percent block at 32 μM
T1 construct: 5 nM HIS-tagged SARS-CoV-2 Spike-RBDs; purchased Sino Biological
T1 sequence (Q9BYF1 18-740): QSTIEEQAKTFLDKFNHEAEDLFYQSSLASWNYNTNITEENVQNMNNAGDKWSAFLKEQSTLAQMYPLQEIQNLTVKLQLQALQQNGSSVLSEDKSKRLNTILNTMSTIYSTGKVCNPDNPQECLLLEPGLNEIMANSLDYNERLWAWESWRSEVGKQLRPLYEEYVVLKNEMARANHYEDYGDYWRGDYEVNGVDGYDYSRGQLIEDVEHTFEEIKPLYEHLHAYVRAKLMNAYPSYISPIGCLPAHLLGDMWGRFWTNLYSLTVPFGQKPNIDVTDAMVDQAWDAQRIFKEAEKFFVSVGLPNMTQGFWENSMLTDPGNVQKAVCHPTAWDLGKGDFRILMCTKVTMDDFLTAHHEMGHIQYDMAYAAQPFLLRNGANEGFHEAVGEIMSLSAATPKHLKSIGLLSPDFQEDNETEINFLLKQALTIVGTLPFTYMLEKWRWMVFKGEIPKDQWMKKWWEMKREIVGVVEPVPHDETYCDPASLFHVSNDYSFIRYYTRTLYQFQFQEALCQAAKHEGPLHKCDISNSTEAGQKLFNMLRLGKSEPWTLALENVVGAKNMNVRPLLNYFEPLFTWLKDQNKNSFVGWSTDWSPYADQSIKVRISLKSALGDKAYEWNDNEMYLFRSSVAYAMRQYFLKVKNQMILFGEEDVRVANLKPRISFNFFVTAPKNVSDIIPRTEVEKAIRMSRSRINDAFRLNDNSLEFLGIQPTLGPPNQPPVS

Aurora A kinase = biological target: T2, Aurora A kinase (Homo sapiens, UniProt O14965); test: Aurora A kinase inhibition assay (HTRF kinase assay / Z′-LYTE Kinase Assay Kit ser/thr 01 peptide); assay type: biochemical; conditions: for inhibition at 32 µM: 32 μM compound, read-out: Aurora A Kinase Percent block at 32 μM; for IC50: ATP 500 μM, Aurora A kinase 2.7–4.7 nM
T2 sequence (O14965 1-403): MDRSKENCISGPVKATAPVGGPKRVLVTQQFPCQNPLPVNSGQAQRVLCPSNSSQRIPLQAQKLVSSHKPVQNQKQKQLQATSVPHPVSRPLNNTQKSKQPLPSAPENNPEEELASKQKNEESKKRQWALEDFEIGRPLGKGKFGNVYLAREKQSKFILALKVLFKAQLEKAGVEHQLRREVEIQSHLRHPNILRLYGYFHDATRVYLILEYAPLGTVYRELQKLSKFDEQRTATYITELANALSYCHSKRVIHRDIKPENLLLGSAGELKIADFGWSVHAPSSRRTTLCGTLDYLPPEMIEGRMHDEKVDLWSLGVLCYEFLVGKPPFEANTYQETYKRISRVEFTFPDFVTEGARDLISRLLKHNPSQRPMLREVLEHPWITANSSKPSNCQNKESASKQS
Protocol: The activities of the synthesized compounds were evaluated using Invitrogen Z′-LYTE® Kinase Assay Kitser/thr 01 peptide. The bioassay was performed using Aurora A kinase at an optimum concentration of 2.7–4.7 nM and ATP at a concentration of 500 μM. Stock solutions of molecules were prepared at 10 mM in DMSO, and then serially diluted in buffer solution to yield final hit concentrations ranging from 0.01 μM to 100 μM. […] The percentage of inhibition and IC50 value were calculated using nonlinear regression of the log (concentration) vs inhibition percentage values using GraphPad Prism 7.04.

Compound | inhibition at 32 µM [1] [%] | inhibition at 32 µM (Aurora A kinase) [%] | IC50 (Aurora A kinase) [µM] | IC50 ([1]; Spike RBD/ACE2 IC50) [µM] | IC50 ([1]; read-out: Spike RBD/ACE2 IC50) | Spike RBD/ACE2 Percent block at 32 μM [1] [%]
O=C(Cc1ccc(Cl)cc1)Nc1ccc2c(c1)/C(=N\Nc1ccc(C(F)(F)F)cc1)C(=O)N2 [Compound 6f, (E)-2-(4-chlorophenyl)-N-(2-oxo-3-(2-(4(trifluoromethyl)phenyl)hydrazineylidene)indolin-5-yl)acetamide] | 27.1 ± 3.9 | 87.8 ± 2.9 | 1.8 ± 0.2 |  |  | 
CC(=O)Nc1ccc2c(c1)/C(=N\Nc1ccncc1)C(=O)N2 [Compound 6c, (E)-N-(2-oxo-3-(2-(pyridine-4-yl)hydrazineylidene)indolin-5-yl)acetamide] | 5.2 ± 4.1 | 58.1 ± 1.7 | 5.5 ± 0.5 |  |  | 
Cc1ccc(N/N=C2/C(=O)Nc3ccc(NC(=O)c4ccc(Cl)cc4)cc32)cc1 [Compound 6j, (E)-4-chloro-N-(2-oxo-3-(2-(p-tolyl)hydrazineylidene)indolin-5-yl)benzamide] | 2.8 ± 4 | 13.2 ± 8.2 |  |  |  | 
O=C(Cc1ccc(Cl)cc1)Nc1ccc2c(c1)/C(=N\Nc1ccc(Cl)cc1Cl)C(=O)N2 [Compound 6e, (E)-2-(4-chlorophenyl)-N-(3-(2-(2,4-dichlorophenyl)hydrazineylidene)-2-oxoindolin-5-yl)acetamide] | 10.4 ± 12.1 | 10 ± 4.9 |  |  |  | 
CC(=O)Nc1ccc2c(c1)C1(OCC(C)(C)CO1)C(=O)N2 [Compound 4a, N-(5’,5’-dimethyl-2-oxospiro[indoline-3,2’-[1,3]dioxan]-5-yl)acetamide] | 0 | 9.1 ± 6.5 |  |  |  | 
O=C1Nc2ccc(NC(=O)c3ccc(Cl)cc3)cc2/C1=N\Nc1ccc(C(F)(F)F)cc1 [Compound 6l, (E)-4-chloro-N-(2-oxo-3-(2-(4(trifluoromethyl)phenyl)hydrazineylidene)indolin-5-yl)benzamide] | 44.2 ± 9 | 19.4 ± 13.5 |  |  |  | 
CCS(=O)(=O)Nc1ccc2c(c1)/C(=C(/Nc1ccc(CN3CCCCC3)cc1)c1ccccc1)C(=O)N2 [Hesperadin, reference compound] | 43.3 ± 10.6 | 93.8 ± 0.8 | 0.0053 ± 0.0027 |  |  | 
O=C(CCN1CCOCC1)Nc1ccc2c(c1)/C(=N\Nc1ccc(Cl)cc1Cl)C(=O)N2 [Compound 6h, (E)-N-(3-(2-(2,4-dichlorophenyl)hydrazineylidene)-2-oxoindolin-5-yl)-3-morpholinopropanamide] | 21.3 ± 5.6 | 10.3 ± 7.1 |  |  |  | 
CC1(C)COC2(OC1)C(=O)Nc1ccc(NC(=O)CCN3CCOCC3)cc12 [Compound 4c, N-(5’,5’-dimethyl-2-oxospiro[indoline-3,2’-[1,3]dioxan]-5-yl)-3-morpholinopropanamide] | 2 ± 2.9 | 1.6 ± 2.1 |  |  |  | 
Cc1ccc(N/N=C2/C(=O)Nc3ccc(NC(=O)Cc4ccc(Cl)cc4)cc32)cc1 [Compound 6d, (E)-2-(4-chlorophenyl)-N-(2-oxo-3-(2-(p-tolyl)hydrazineylidene)indolin-5-yl)acetamide] | 3.2 ± 0.4 | 54.2 ± 6.7 | 22.8 ± 7.9 |  |  | 
O=C1Nc2ccc(NC(=O)c3ccc(Cl)cc3)cc2/C1=N\Nc1ccc(Cl)cc1Cl [Compound 6k, (E)-4-chloro-N-(3-(2-(2,4-dichlorophenyl)hydrazineylidene)-2-oxoindolin-5-yl)benzamide] | 34.4 ± 20.4 | 13.4 ± 14.6 |  |  |  | 
O=C1Nc2ccc(NC(=O)c3ccc(Cl)cc3)cc2/C1=N\Nc1ccncc1 [Compound 6m, (E)-4-chloro-N-(2-oxo-3-(2-(pyridine-4-yl)hydrazineylidene)indolin-5-yl)benzamide] | 0 | 80.2 ± 1.2 | 3.1 ± 1.3 |  |  | 
O=C(CCN1CCOCC1)Nc1ccc2c(c1)/C(=N\Nc1ccc(C(F)(F)F)cc1)C(=O)N2 [Compound 6i, (E)-3-morpholino-N-(2-oxo-3-(2-(4(trifluoromethyl)phenyl)hydrazineylidene)indolin-5-yl)propanamide] | 64.5 ± 9 | 79.3 ± 1.5 | 4.8 ± 0.3 | 12.1 ± 2.9 | < 30 µM and 22.4 µM | 
CC1(C)COC2(OC1)C(=O)Nc1ccc(NC(=O)c3ccc(Cl)cc3)cc12 [Compound 4d, 4-chloro-N-(5’,5’-dimethyl-2-oxospiro[indoline-3,2’-[1,3]dioxan]-5-yl)benzamide] | 22.5 ± 5.7 | 17.8 ± 9.2 |  |  |  | 
CC(=O)Nc1ccc2c(c1)/C(=N\Nc1ccc(Cl)cc1Cl)C(=O)N2 [Compound 6b, (E)-N-(3-(2-(2,4-dichlorophenyl)hydrazineylidene)-2-oxoindolin-5-yl)acetamide] | 21.5 ± 6.2 | 26.4 ± 0.6 |  |  |  | 
CC1(C)COC2(OC1)C(=O)Nc1ccc(NC(=O)Cc3ccc(Cl)cc3)cc12 [Compound 4b, 2-(4-chlorophenyl)-N-(5’,5’-dimethyl-2-oxospiro[indoline-3,2’-[1,3]dioxan]-5-yl)acetamide] | 20.1 ± 11.5 | 20.9 ± 6.3 |  |  |  | 
CC(=O)Nc1ccc2c(c1)/C(=N\Nc1ccc(C)cc1)C(=O)N2 [Compound 6a, (E)-N-(2-oxo-3-(2-(p-tolyl)hydrazineylidene)indolin-5-yl)acetamide] | 21.5 ± 4.8 | 82.7 ± 2.7 | 0.8 ± 0.1 |  |  | 
Hopeaphenol [reference compound] |  |  |  |  | 0.3 ± 0.1 µM | 83.6 ± 2.0

— PMC11024012, “Design, synthesis, and biochemical and computational screening of novel oxindole derivatives as inhibitors of Aurora A kinase and SARS-CoV-2 spike/host ACE2 interaction” (Medicinal Chemistry Research, 2024)
